The assay in a line: DPPH (2,2-diphenyl-1-picrylhydrazyl) radical scavenging antioxidant test in vitro. In kind it is biochemical. To be noted: 517 nm; for Inhibition (radical scavenging inhibition): 0.2 mL DPPH (0.75 mM), compound 3 μM in ethanol, 30 min incubation in the dark. Here is the method: The antioxidant properties of the 8-(3-chlorobenzylideneamino)naphthalene-1,3-disulfonic acid were studied by adding 0.2 mL DPPH (0.75 mM)) to compound 8-(3-chlorobenzylideneamino)naphthalene-1,3-disulfonic acid (III) (3 μM) in ethanol. After 30 min of incubation in the dark, the absorbance was read against a blank at 517 nm. Ascorbic acid (vitamin C) was used as standard antioxidants (positive control). A blank sample was prepared by 0.2 ml of DPPH in 3 ml ethanol. A negative control sample was run using ethanol instead of the sample. The radical scavenging inhibition was calculated using the following equation: […]
The antioxidant activity for the synthesized compound is listed in Table 1, using Vitamin C as a reference.
In general terms: DPPH is a stable violet radical that fades when it is reduced.

We go through two molecules from patent US11970440B1, “8-(3-chlorobenzylideneamino)naphthalene-1,3-disulfonic acid as an antioxidant compound” (KING FAISAL UNIVERSITY, priority 2023, dated 2024).

`O=C1O[C@H]([C@@H](O)CO)C(O)=C1O` [vit c, Ascorbic acid, reference compound]: the “Inhibition (radical scavenging inhibition)” value was found to be 74%.
Take `O=S(=O)(O)c1cc(S(=O)(=O)O)c2c(/N=C/c3cccc(Cl)c3)cccc2c1` [Product III, 8-(3-chlorobenzylideneamino)naphthalene-1,3-disulfonic acid]: the “Inhibition (radical scavenging inhibition)” value came to 50%. In addition, the “antioxidant potential in DPPH test, in words” value (DPPH in vitro test, vitamin C as positive control) is “high potential as an antioxidant compared to vitamin C”.
